{
  "source": "patent US20140039057A1",
  "about": "“Compositions” (Reckitt Benckiser Healthcare (UK) Limited, priority 2008, published 2014)",
  "origin": "cited, not measured here",
  "settings": "phase II and phase III clinical studies",
  "data": [
    {"compound": "CC(C(=O)O)c1ccc(-c2ccccc2)c(F)c1", "note": "(stereo not shown) [Flurbiprofen]", "values": [
      {"measurement": "efficacy in the treatment of sore throat", "value": "efficacious"}
    ]}
  ]
}
